{"source": "patent US5843983A", "about": "“Diphenylethane compounds containing a saturated heterocyclic group, their preparation, and their therapeutic use” (Sankyo Company, Limited, priority 1996, dated 1998)", "key": {"[1]": {"biological_target": "serotonin receptors", "experiment": "Receptor-binding experiment", "design": "species or system Male Wistar rats", "conditions": "rat cerebral cortex membrane, ^3 H-ligand, 30° C., 1 hour; read-out: IC50 (concentration required to inhibit the binding by 50%)", "procedure": "Receptor-binding experiment\nThe method of Leysen et al. [Mol. Pharmacol., 21, 301-314, (1982)] was employed. Male Wistar rats (body weight 280-320 g) were used in this experiment. The head of each animal was severed, and the cerebral cortex and corpus striatum were excised. These organs were frozen on dry ice and stored at -80° C. until used. Binding to serotonin receptors was examined using the cerebral cortex. To prepare a membrane suspension, the frozen brain tissue was homogenised with 50 mM Tris-HCl buffer (pH 7.7) using Polytron PT-20, and the homogenate was centrifuged at 49,000×gfor 10 minutes. The resulting pellet was suspending in a Tris buffer, centrifuged, and resuspended in Tris buffer. The content of protein in the membrane suspension thus prepared was determined, and adjusted to 0.57 mg/protein/ml with Tris buffer. The membrane suspension was stored at -80° C.\nThe receptor-binding reaction was started by adding 440 μl of the membrane suspension to a test tube containing 50 μl of ^3 H-ligand and 10 μl of each test compound (dissolved in dimethyl sulfoxide). After incubation at 30° C. for 1 hour, the reaction was terminated by filtration under reduced pressure using a Whatman GF/B glass filter. The filter was washed with ice-cooled Tris buffer (4 ml×2 times). The filter was then treated with ACS-II, and its radioactivity was determined with a liquid scintillation counter. Non-specific binding was determined in the presence of 20 μM atropine. The percent inhibition of receptorbinding was determined from the percent binding in the presence of each test compound. The concentration of each test compound required to inhibit the binding by 50% (IC50) was calculated from the least square regression line."}, "[2]": {"test_system": "smooth muscle contraction", "experiment": "Vasoconstriction experiment (serotonin-induced contraction of tail artery helical strip)", "format": "cell-based, Male SD rats", "conditions": "rat tail artery strip, 3×10^-6 M serotonin, Tyrode's solution, 37° C.; read-out: IC50 (concentration required to reduce the tension to 50%)", "procedure": "Vasoconstriction experiment\nEffects on smooth muscle contraction were examined by the method of Van Neuten et al. [J. Pharmacol. Exp. Ther., 218, 217-230, (1981)]. Male SD rats, each weighing approximately 500 g, were sacrificed by exsanguination, and the tail artery was excised from each animal. Adherent tissues were removed from the artery for preparation of a helical strip of dimensions about 2×20 mm. The strip was suspended in an organ bath kept at 37° C. and containing 10 ml of Tyrode's solution saturated with a mixed gas (95% O2 /5% CO2) and equilibrated for 1 hour before used in the experiment. An initial tension of 0.5 g was loaded on the helical strip, and changes in tension were recorded in an isometric manner via a transducer. 3×10^-6 M of serotonin was added to the bath as a vasoconstriction inducer, and, after stabilisation of the contractile response of the specimen, a test compound was added to the bath so as to increase the level of test compound in the bath progressively, whilst monitoring the tension in the helical strip. 10^-4 M of papaverine was then added. On the assumption that the tension before the addition of each test compound was 100% and that the tension 5 minutes after the addition of papaverine was 0%, the concentration of each test compound required to reduce the tension to 50% (IC50) was calculated from the least square regression line."}, "[3]": {"biological_target": "T1, squalene synthase (Rattus norvegicus, UniProt Q02769)", "T1 construct": "The reaction was started by the addition of rat liver microsome suspension; from tissue; host or cells: rat liver microsomes", "T1 sequence (Q02769 1-416)": "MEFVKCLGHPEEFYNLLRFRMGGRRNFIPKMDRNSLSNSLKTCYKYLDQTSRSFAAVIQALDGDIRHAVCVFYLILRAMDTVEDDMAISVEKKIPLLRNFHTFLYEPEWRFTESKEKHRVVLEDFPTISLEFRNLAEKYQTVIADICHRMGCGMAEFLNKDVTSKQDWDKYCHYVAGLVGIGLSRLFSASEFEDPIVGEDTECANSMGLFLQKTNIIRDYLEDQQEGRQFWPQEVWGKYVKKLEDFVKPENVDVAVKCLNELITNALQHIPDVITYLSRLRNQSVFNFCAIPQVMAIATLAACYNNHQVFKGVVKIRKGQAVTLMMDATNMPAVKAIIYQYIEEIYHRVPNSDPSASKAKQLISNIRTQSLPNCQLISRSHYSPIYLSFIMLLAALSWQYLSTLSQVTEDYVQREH", "experiment": "Squalene synthase inhibitory activity", "format": "biochemical", "conditions": "rat liver microsome, 10 μM [4-^14 C]-FPP, pH 7.5, 37° C., 20 minutes; read-out: IC50 (50% inhibitory concentration)", "procedure": "Squalene synthase inhibitory activity Squalene synthase inhibitory activity was determined by the method described in U.S. Pat. […] Anal. Biochem. 203, 310 (1992). […] The reaction was started by the addition of rat liver microsome suspension. The reaction solution was then incubated in a thermostat at 37° C. for 20 minutes, after which the reaction was terminated by the addition of 100 μl of a 1:1 by volume mixture of 40% KOH (aqueous potassium hydroxide) and 95% EtOH (aqueous ethanol). The reaction solution thus treated was further heated at 65° C. for 30 minutes, and then cooled. Squalene was extracted with 2 ml of hexane. One milliliter of the resulting hexane layer was mixed with 10 ml of scintillator, and radioactivity was determined using a liquid scintillation counter. The inhibitory activity of each test compound for the enzyme was determined by co-incubation of the sample containing the test compound with the enzyme sample and substrate in the reaction solution."}}, "note": "pIC50: −log10 of the molar value. Where a name gives a salt, the structure may show the parent alone.", "data": [{"smiles": "COc1cccc(CCc2cc(F)ccc2OCC[C@@H]2C[C@@H](O)CN2C)c1", "note": "[Example 1, (2R,4R)-2-[2-{4-Fluoro-2-[2-(3-methoxyphenyl)ethyl]phenoxy}ethyl]-4-hydroxy-1-methylpyrrolidine hydrochloride]", "values": [{"measurement": "pIC50", "setting": "[1]", "result": 9.00}, {"measurement": "pIC50", "setting": "[2]", "result": 8.72}]}, {"smiles": "CN1C[C@H](O)C[C@H]1CCOc1ccc(F)cc1CCc1ccc(F)cc1", "note": "[Example 2, (2R,4R)-2-[2-{4-Fluoro-2-[2-(4-fluorophenyl)ethyl]phenoxy}ethyl]-4-hydroxy-1-methylpyrrolidine hydrochloride]", "values": [{"measurement": "pIC50", "setting": "[1]", "result": 9.10}, {"measurement": "pIC50", "setting": "[2]", "result": 8.70}]}, {"smiles": "CN1C[C@H](O)C[C@H]1CCOc1ccc(F)cc1CCc1ccc(F)c(F)c1", "note": "[Example 7, (2R,4R)-2-[2-{2-[2-(3,4-Difluorophenyl)ethyl]-4-fluorophenoxy}ethyl]-4-hydroxy-1-methylpyrrolidine hydrochloride]", "values": [{"measurement": "pIC50", "setting": "[1]", "result": 9.12}, {"measurement": "pIC50", "setting": "[2]", "result": 8.59}]}, {"smiles": "Cc1ccc(OCC[C@@H]2C[C@@H](O)CN2C)c(CCc2ccccc2)c1", "note": "[Example 12, (2R,4R)-4-Hydroxy-1-methyl-2-{2-[4-methyl-2-(2-phenylethyl)phenoxy]ethyl}pyrrolidine hydrochloride]", "values": [{"measurement": "pIC50", "setting": "[3]", "result": 5.82}]}, {"smiles": "O[C@H]1CN[C@H](CCOc2ccc(F)cc2CCc2ccccc2)C1", "note": "[Example 5, (2R,4R)-2-{2-[4-Fluoro-2-(2-phenylethyl)phenoxy]ethyl}-4-hydroxypyrrolidinehydrochloride]", "values": [{"measurement": "pIC50", "setting": "[3]", "result": 6.13}]}, {"smiles": "CN1C[C@H](O)C[C@H]1CCOc1ccc(F)cc1CCc1ccccc1", "note": "[Example 6, (2R,4R)-2-{2-[4-Fluoro-2-(2-phenylethyl)phenoxy]ethyl}-4-hydroxy-1-methylpyrrolidine hydrochloride]", "values": [{"measurement": "pIC50", "setting": "[1]", "result": 8.47}, {"measurement": "pIC50", "setting": "[3]", "result": 5.96}, {"measurement": "pIC50", "setting": "[2]", "result": 8.66}]}, {"smiles": "COc1cc(CCc2cc(F)ccc2OCC[C@@H]2C[C@@H](O)CN2C)ccc1F", "note": "[Example 4, (2R,4R)-2-[2-{4-Fluoro-2-[2-(4-fluoro-3-methoxyphenyl)ethyl]phenoxy}ethyl]-4-hydroxy-1-methylpyrrolidine hydrochloride]", "values": [{"measurement": "pIC50", "setting": "[1]", "result": 9.19}, {"measurement": "pIC50", "setting": "[3]", "result": 5.80}, {"measurement": "pIC50", "setting": "[2]", "result": 8.64}]}]}
